Assay results reported in patent US10159268B2, “Reduced sodium food products” (GENERAL MILLS, INC., priority 2013, dated 2018).

Experiments:
[1] = Broth DAP test: trained panel rates saltiness of compounds in simple broth; format: in vivo; parameters: key: DAP score; >7.6 indicates saltiness or salt enhancement in broth; conditions: single compound in simple broth; best DAP score of tested concentrations 0.1, 1 and 10 ppm; DAP score greater than 7.6 indicates saltiness or salt enhancement
Experimental: (§1) Briefly, each individual tested compound was placed in water and in sodium solution to test saltiness and saltiness enhancement potential. Tests in water were executed in a compound concentration of 10 ppm. Tests in sodium solution were executed in compound concentrations of 0.1, 1 and 10 ppm. Two control sodium solutions with known organoleptic salt intensities were provided as references for each test. The test for individual compounds was also conducted using simple broth instead of sodium solution. A number of compound combinations identified from the Na-solution DAP test were used for the broth DAP test. Tests were executed with a trained panel of 9-12 assessors. For Na-solution DAP tests, a DAP score of greater than 3.1 indicates saltiness or salt enhancement. The DAP score can be correlated with a sodium reduction potential by subtracting 3.1 from the DAP score. […] For broth DAP tests, a DAP score of greater than 7.6 indicates saltiness or salt enhancement. The DAP score can be correlated with a sodium reduction potential by subtracting 7.6 from the DAP score.

[2] = Na-solution DAP test: trained panel rates saltiness of compounds in sodium solution; format: in vivo; parameters: key: DAP score; >3.1 indicates saltiness or salt enhancement; conditions: single compound in sodium solution; best DAP score of tested concentrations 0.1, 1 and 10 ppm; DAP score greater than 3.1 indicates saltiness or salt enhancement
Experimental: as §1

In the case of `COc1cc2c(c(OC)c1OC)-c1c(cc(OC)c(OC)c1OC)C[C@H](C)[C@H](C)C2` [Compound 45, Schisandrin A, Deoxyschizandrin], the “DAP in Broth” value [1] is reported as 8.2 and the “DAP in Na-Sol.” value [2] is reported as 3.5.

With `COc1cc2c(c(OC)c1OC)-c1c(cc3c(c1OC)OCO3)CC(C)C(C)C2` (stereo not drawn) [Compound 46, Schizandrin B] the “DAP in Broth” value [1] was 7.8 and the “DAP in Na-Sol.” value [2] was 3.6.

With `COc1cc(C[C@@H](CO)[C@H](CO)Cc2ccc(O[C@@H]3O[C@H](CO)[C@@H](O)[C@H](O)[C@H]3O)c(OC)c2)ccc1O` [Compound 48, Secoisolariciresinol; Secoisolariciresin-4-yl b-D-glucopyranoside] the “DAP in Broth” value [1] was 7.8 and the “DAP in Na-Sol.” value [2] was 3.7.

In the case of `COc1cc(CC(C)C(C)Cc2ccc(O)c(OC)c2)ccc1O` (stereo not drawn) [Compound 49, Dihydrogualaretic acid], the “DAP in Broth” value [1] is reported as 8.2 and the “DAP in Na-Sol.” value [2] is reported as 3.6.

With `CCCC(=O)c1c(OC)cc(OC)c(CCO)c1O` [Compound 54] the “DAP in Broth” value [1] was 8.1 and the “DAP in Na-Sol.” value [2] was 3.4.

For `CC1(C)CC2C1CCC1(C)CC2(O)CCC1O` (stereo not drawn) [Compound 56, Senecrassidiol], the “DAP in Broth” value [1] was 7.7 and the “DAP in Na-Sol.” value [2] was 4.

With `C/C=C(\C)C(=O)O[C@H]1C[C@@H](OC(C)=O)[C@@]2(C)CO[C@@H]3C2[C@@]1(C)[C@@H](CC(=O)OC)[C@]1(C)C2=C(C)[C@H](c4ccoc4)C[C@H]2O[C@H]31` (stereo partly drawn) [Compound 58, Salannin] the “DAP in Broth” value [1] was 8.0 and the “DAP in Na-Sol.” value [2] was 3.3.

For `COc1cc(C2c3cc4c(cc3CC3COC(=O)C32)OCO4)cc(OC)c1OC` (stereo not drawn) [Compound 59, Isoanthricin], the “DAP in Broth” value [1] was 7.9 and the “DAP in Na-Sol.” value [2] was 3.3.

With `CC(C)C(=O)c1c2c(c3oc(=O)cc(-c4ccccc4)c3c1O)CC(C(C)(C)O)O2` (stereo not drawn) [Compound 60, Mammea A/AD cyclo F] the “DAP in Broth” value [1] was 8.1 and the “DAP in Na-Sol.” value [2] was 3.8.

For `COc1c2ccoc2cc2oc(=O)ccc12` [Compound 62, Bergapten], the “DAP in Broth” value [1] was 8.0 and the “DAP in Na-Sol.” value [2] was 3.9.

In the case of `CC(C)(O)[C@@H](O)COc1c2ccoc2cc2oc(=O)ccc12` [Compound 63, Prangol], the “DAP in Broth” value [1] is reported as 8.0 and the “DAP in Na-Sol.” value [2] is reported as 3.5.

With `CC(C)=CCOc1c2occc2cc2ccc(=O)oc12` [Compound 64, Imperatorin] the “DAP in Broth” value [1] was 7.8 and the “DAP in Na-Sol.” value [2] was 3.7.

In the case of `COc1c2ccoc2c(OCC=C(C)C)c2oc(=O)ccc12` [Compound 65, Phellopterin], the “DAP in Broth” value [1] is reported as 7.9 and the “DAP in Na-Sol.” value [2] is reported as 3.3.

With `CC(=O)OC1CCC2(C)C(COc3ccc4ccc(=O)oc4c3)C(C)(O)CCC2C1(C)C` (stereo not drawn) [Compound 66, terpenoid coumarins] the “DAP in Broth” value [1] was 7.8 and the “DAP in Na-Sol.” value [2] was 3.2.

For `C[C@]12CC[C@H](O)C[C@H]1CC[C@@H]1[C@@H]2CC[C@]2(C)[C@@H](C3=CC(=O)OC3)CC[C@]12O` [Compound 73, Digitoxigenin], the “DAP in Broth” value [1] was 8.0 and the “DAP in Na-Sol.” value [2] was 3.5.

With `CC(=O)O[C@@H]1C[C@H]2C(C)(C)C(=O)C=C[C@]2(C)[C@H]2CC[C@]3(C)C(=CC(=O)[C@H]3c3ccoc3)[C@@]21C` [Compound 74, Azadiradione] the “DAP in Broth” value [1] was 7.7 and the “DAP in Na-Sol.” value [2] was 3.2.

For `COC1CC(OC2CCC3(C=O)C(CCC4C3CCC3(C)C(C5=CC(=O)OC5)CCC43O)C2)OC(C)C1OC1OC(CO)C(O)C(O)C1O` (stereo not drawn) [Compound 76, Apobioside], the “DAP in Broth” value [1] was 8.0 and the “DAP in Na-Sol.” value [2] was 3.2.

For `COC1CC(OC2CCC3(C=O)C(CCC4C3CCC3(C)C(C5=CC(=O)OC5)CCC43O)C2)OC(C)C1O` (stereo not drawn) [Compound 77, Apocannoside], the “DAP in Broth” value [1] was 8.1 and the “DAP in Na-Sol.” value [2] was 3.4.

For `C=CCCCCCCC(C(=O)O)C(O)CC(=O)O` (stereo not drawn) [Compound 81, a 2-octenyl-3-hydroxy-1,5-pentanedioic acid], the “DAP in Broth” value [1] was 7.8 and the “DAP in Na-Sol.” value [2] was 3.2.

For `C=CCCCCCCCCCCC[C@H](O)C[C@H](O)CO` [Compound 82, 16-Heptadecene-1,2,4-triol; Avocadene], the “DAP in Broth” value [1] was 8.3 and the “DAP in Na-Sol.” value [2] was 3.8.

For `C=CCCCCCCCCCCCC(CC(O)COC(C)=O)OC(C)=O` (stereo not drawn) [Compound 83, 16-Heptadecene-1,2,4-triol, 1,4-diacetate], the “DAP in Broth” value [1] was 8.1 and the “DAP in Na-Sol.” value [2] was 4.2.

For `CCCCCCCCCCNC(C)=O` [Compound 84, N-Decyl acetamide], the “DAP in Broth” value [1] was 8.1 and the “DAP in Na-Sol.” value [2] was 3.8.

For `CCC=CC=CC(O)CC=CCCCCCCCC(=O)O` (stereo not drawn) [Compound 86, 12-hydroxy-9,13,15-Octadecatrienoic acid], the “DAP in Broth” value [1] was 8.0 and the “DAP in Na-Sol.” value [2] was 3.9.

For `CCCCC/C=C/C=C/C(O)CCCCCCCC(=O)O` (stereo not drawn) [Compound 88, Dimorphecolic acid], the “DAP in Broth” value [1] was 8.0 and the “DAP in Na-Sol.” value [2] was 3.2.

For `CC/C=C\C/C=C\C/C=C\CCCCCCCC(=O)O` [Compound 89, Linolenic acid], the “DAP in Broth” value [1] was 7.6 and the “DAP in Na-Sol.” value [2] was 3.7.

For Brevifolin [Compound 53], the “DAP in Broth” value [1] was 8.5 and the “DAP in Na-Sol.” value [2] was 3.7.

In the case of “a pentadecatrienyl-1,3-benzenediol [Compound 10]”, the “DAP in Broth” value [1] is reported as 7.9 and the “DAP in Na-Sol.” value [2] is reported as 3.9.
